The results in this text go back to patent US9045466B2, “Amidine compound or salt thereof” (priority 2011, dated 2015).

This assay relates to Trichophyton rubrum NBRC 5467. Put plainly: Fungal susceptibility test, broth microdilution method (MIC). The assay is classed as cell-based. The following applies: NBRC5467, 96 h. Here is the method:
The fungal susceptibility tests on test substances were conducted by the broth microdilution method equivalent to Clinical and Laboratory Standards Institute method. The medium used in the susceptibility tests was RPMI1640 adjusted to pH 7.0 with 0.165 mol/L morpholinepropanesulfonic acid (MOPS) and 50% sodium hydroxide (RPMI/MOPS). Each test substance was dissolved in DMSO and serially diluted in 2-fold increments with DMSO on a 96-well microplate. Then, the dilutions were dispensed by 1 μL to a 96-well microplate. Candida albicans TIMM 1623 cultured overnight at 35° C. in Sabouraud's agar medium was suspended in sterile saline. The number of cells was counted under a biological microscope, and the fungal suspension was diluted with RPMI/MOPS to prepare the inoculum solution (approximately 1×10^3 cells/mL). Alternatively, Candida albicans TIMM 1623 stored at −80° C. was diluted with RPMI/MOPS to prepare the inoculum solution (approximately 1×10^3 CFU/mL). Aspergillus fumigatus TIMM 0063 stored at 5° C. was diluted with RPMI/MOPS to prepare the inoculum solution (approximately 1×10^4 CFU/mL). Trichophyton rubrum NBRC 5467 stored at 5° C. or −80° C. was diluted with RPMI/MOPS to prepare the inoculum solution (approximately 2×10^3 CFU/mL). The 199 μL of inoculum solution was dispensed to each well to prepare the microplate containing the designated concentrations of test substance, medium and fungal cells. Candida albicans and Aspergillus fumigatus were cultured at 35° C. for 2 days. Trichophyton rubrum was cultured at 35° C. for 4 days. After the completion of culture, MIC was determined by visual observation. The MICs of Candida albicans and Aspergillus fumigatus were set to the lowest concentration at which approximately 50% growth inhibition was seen, when compared with a growth control without the addition of the test substance. The MIC of Trichophyton rubrum was set to the lowest concentration at which approximately 80% growth inhibition was seen, when compared with a growth control without the addition of the test substance.

The mark [1] stands for this setting: RPMI/MOPS pH 7.0, 35° C. for 4 days, visual, lowest concentration with approximately 80% growth inhibition, read-out: MIC (μg/mL) T. rubrum NBRC5467.
[2] abbreviates: pH 7, read-out: MIC (μg/mL) T. rubrum NBRC5467.

≈ marks a conversion by molar mass, not a printed value. Counter-ions that a name gives are not always drawn. Like-named read-outs stand apart in the source and are kept apart here.

For `COC(=O)CN(C)/C=N/c1cc(C)c(Cc2nc(-c3ccc(C)cc3)cs2)cc1C` [Example 7, Methyl N-{(E)-[(2,5-dimethyl-4-{[4-(4-methylphenyl)-1,3-thiazol-2-yl]methyl}phenyl)imino]methyl}-N-methylglycinate], the MIC under setting [1] amounted to 0.25 µg/mL (≈ 0.593 µM).
In the case of `CCN(C)/C=N/c1cc(C)c(Cc2nc(C(=O)c3ccccc3)cs2)cc1C` [Example 19, N′-(2,5-Dimethyl-4-{[4-(phenylcarbonyl)-1,3-thiazol-2-yl]methyl}phenyl)-N-ethyl-N-methylimidoformamide dihydrochloride], under setting [2], the MIC worked out at 0.0156 µg/mL.
Same read-out and setting: next, `CCN(C)/C=N/c1cc(C)c(Cc2nc(-c3cncc(F)c3)cs2)cc1C` [Example 21, N-Ethyl-N′-(4-{[4-(5-fluoropyridin-3-yl)-1,3-thiazol-2-yl]methyl}-2,5-dimethylphenyl)-N-methylimidoformamide trihydrochloride]: 0.0156 µg/mL.
In the case of `CCN(C)/C=N/c1cc(C)c(Cc2nc(-c3ccc(S(C)(=O)=O)cc3)cs2)cc1C` [Example 23, N′-[2,5-Dimethyl-4-{4-[4-(methylsulfonyl)phenyl]-1,3-thiazol-2-yl}methyl)phenyl]-N-ethyl-N-methylimidoformamide dihydrochloride], the MIC under setting [1] stood at 0.0039 µg/mL.
As to `CCN(C)/C=N/c1cc(C)c(Cc2nc(-c3ccccc3)c(C(=O)c3ccccc3)s2)cc1C` [Example 25, N′-(2,5-Dimethyl-4-{[4-phenyl-5-(phenylcarbonyl)-1,3-thiazol-2-yl]methyl}phenyl)-N-ethyl-N-methylimidoformamide dihydrochloride], the MIC under setting [2] is 0.0313 µg/mL.
Still for that read-out and setting: to `CCN(C)/C=N/c1cc(C)c(Cc2nc(CS(=O)(=O)c3ccc(C)cc3)cs2)cc1C` [Example 30, N′-{2,5-Dimethyl-4-[(4-{[(4-methylphenyl)sulfonyl]methyl}-1,3-thiazol-2-yl)methyl]phenyl}-N-ethyl-N-methylimidoformamide dihydrochloride] belongs 0.0625 µg/mL; to `CCOC(=O)Nc1csc(Cc2cc(C)c(/N=C/N(C)CC)cc2C)n1` [Example 31, Ethyl {2-[4-({(E)-[ethyl(methyl)amino]methylidene}amino)-2,5-dimethylbenzyl]-1,3-thiazol-4-yl}carbamate dihydrochloride], 0.0078 µg/mL.
Take `CCN(C)/C=N/c1cc(C)c(Cc2nc(OC(C)C)cs2)cc1C` [Example 32, N′-(2,5-Dimethyl-4-{[4-(propan-2-yloxy)-1,3-thiazol-2-yl]methyl}phenyl)-N-ethyl-N-methylimidoformamide]: the MIC under setting [1] is 0.0039 µg/mL (≈ 0.0113 µM).
Consider `CCN(C)/C=N/c1cc(C)c(Cc2nc(COC(C)=O)cs2)cc1C` [Example 34, {2-[4-({(E)-[Ethyl(methyl)amino]methylidene}amino)-2,5-dimethylbenzyl]-1,3-thiazol-4-yl}methyl acetate dihydrochloride], for which the MIC under setting [2] was 0.0313 µg/mL.
With `CCOC(=O)c1csc(Cc2cc(C)c(/N=C/N(C)CC)cc2C)n1` [Example 35, Ethyl 2-[4-({(E)-[ethyl(methyl)amino]methylidene}amino)-2,5-dimethylbenzyl]-1,3-thiazole-4-carboxylate], the MIC under setting [2] came to 0.0313 µg/mL (≈ 0.0871 µM).
The same measure, in the same setting: to `CCN(C)/C=N/c1cc(C)c(Cc2nc(-c3cnc(C)cn3)cs2)cc1C` [Example 37, N′-(2,5-Dimethyl-4-{[4-(5-methylpyrazin-2-yl)-1,3-thiazol-2-yl]methyl}phenyl)-N-ethyl-N-methylimidoformamide dihydrochloride] belongs 0.0039 µg/mL.
On to `CCN(C)/C=N/c1cc(C)c(Cc2nc(C(O)c3ccc(Cl)cc3)cs2)cc1C` (stereo not shown) [Example 38, N′-[4-({4-[(4-Chlorophenyl)(hydroxy)methyl]-1,3-thiazol-2-yl}methyl)-2,5-dimethylphenyl]-N-ethyl-N-methylimidoformamide], for which the MIC under setting [1] turned out to be 0.0078 µg/mL (≈ 0.0182 µM).
On the same count and under the same terms, to `CCN(C)/C=N/c1cc(C)c(Cc2nc(-c3ccc(C(=O)NC)cc3)cs2)cc1C` [Example 41, 4-{2-[4-({(E)-[Ethyl(methyl)amino]methylidene}amino)-2,5-dimethylbenzyl]-1,3-thiazol-4-yl}-N-methylbenzamide] belongs 0.0078 µg/mL (≈ 0.0185 µM).
On to `CCN(C)/C=N/c1cc(C)c(Cc2nc(C(=O)NCc3ccccc3)cs2)cc1C` [Example 44, N-Benzyl-2-[4-({(E)-[ethyl(methyl)amino]methylidene}amino)-2,5-dimethylbenzyl]-1,3-thiazole-4-carboxamide dihydrochloride], for which, under setting [2], the MIC amounted to 0.0625 µg/mL.
Still for that read-out and setting: to `CCN(C)/C=N/c1cc(C)c(Cc2nc(C3CC3)cs2)cc1C` [Example 45, N′-{4-[(4-Cyclopropyl-1,3-thiazol-2-yl)methyl]-2,5-dimethylphenyl}-N-ethyl-N-methylimidoformamide dihydrochloride] belongs 0.0313 µg/mL; to `CCN(C)/C=N/c1cc(C)c(Cc2nc(-c3ccc(C)cc3)cs2)nc1C` [Example 47, N′-(2,5-Dimethyl-6-{[4-(4-methylphenyl)-1,3-thiazol-2-yl]methyl}pyridin-3-yl)-N-ethyl-N-methylimidoformamide dihydrochloride], 0.0313 µg/mL; to `CCN(C)/C=N/c1ccc(Cc2nc(-c3ccc(Cl)cc3)cs2)cc1` [Example 51, N′-(4-{[4-(4-Chlorophenyl)-1,3-thiazol-2-yl]methyl}phenyl)-N-ethyl-N-methylimidoformamide hydrochloride], 0.25 µg/mL.
`CCN(C)/C=N/c1cc(C)c(Cc2nc(COC(C)C)cs2)cc1C` [Example 63, N′-[2,5-Dimethyl-4-({4-[(propan-2-yloxy)methyl]-1,3-thiazol-2-yl}methyl)phenyl]-N-ethyl-N-methylimidoformamide dihydrochloride]: under setting [2], the MIC is 0.0156 µg/mL.
Same read-out and setting: next, `CCN(C)/C=N/c1cc(C)c(Cc2nc(-c3ccn(C)c(=O)c3)cs2)cc1C` [Example 67, N′-(2,5-Dimethyl-4-{[4-(1-methyl-2-oxo-1,2-dihydropyridin-4-yl)-1,3-thiazol-2-yl]methyl}phenyl)-N-ethyl-N-methylimidoformamide dihydrochloride]: 0.0625 µg/mL; `CCN(C)/C=N/c1cc(C)c(Cc2nc(C(=O)N(C)C3CCCCC3)cs2)cc1C` [Example 71, N-Cyclohexyl-2-[4-({(E)-[ethyl(methyl)amino]methylidene}amino)-2,5-dimethylbenzyl]-N-methyl-1,3-thiazole-4-carboxamide hydrochloride]: 0.0156 µg/mL.
For `CCN(C)/C=N/c1cc(C)c(Cc2nc(C(=O)NC3CCCC3)cs2)cc1C` [Example 74, N-Cyclopentyl-2-[4-({(E)-[ethyl(methyl)amino]methylidene}amino)-2,5-dimethylbenzyl]-1,3-thiazole-4-carboxamide], the MIC under setting [1] is 0.0156 µg/mL (≈ 0.0391 µM).
For `CCN(C)/C=N/c1cc(C)c(Cc2nc(C3CCOCC3)cs2)cc1C` [Example 81, N′-(2,5-Dimethyl-4-{[4-(tetrahydro-2H-pyran-4-yl)-1,3-thiazol-2-yl]methyl}phenyl)-N-ethyl-N-methylimidoformamide], the MIC under setting [1] came to 0.0156 µg/mL (≈ 0.042 µM).
Same read-out and setting: to `CCN(C)/C=N/c1cc(C)c(Cc2nc(C(=O)NC(C)(C)CC)cs2)cc1C` [Example 86, 2-[4-({(E)-[Ethyl(methyl)amino]methylidene}amino)-2,5-dimethylbenzyl]-N-(2-methylbutan-2-yl)-1,3-thiazole-4-carboxamide] belongs 0.0039 µg/mL (≈ 0.00974 µM).
The same measure, in the same setting: next, `CCN(C)/C=N/c1cc(C)c(Cc2nc(C3CCC(C(=O)NC)CC3)cs2)cc1C` (stereo not shown) [Example 87, 4-{2-[4-({(E)-[Ethyl(methyl)amino]methylidene}amino)-2,5-dimethylbenzyl]-1,3-thiazol-4-yl}-N-methylcyclohexanecarboxamide]: 0.0156 µg/mL (≈ 0.0366 µM); `CCN(C)/C=N/c1cc(C)c(Cc2nc(-c3ccc4c(c3)CNC4=O)cs2)cc1C` [Example 89, N′-(2,5-Dimethyl-4-{[4-(1-oxo-2,3-dihydro-1H-isoindol-5-yl)-1,3-thiazol-2-yl]methyl}phenyl)-N-ethyl-N-methylimidoformamide]: 0.0625 µg/mL (≈ 0.149 µM); `CN/C=N/c1cc(C)c(Cc2nc(-c3ccc(C(=O)NC)cc3)cs2)cc1C` [Example 95, 4-[2-(2,5-Dimethyl-4-{[(E)-(methylamino)methylidene]amino}benzyl)-1,3-thiazol-4-yl]-N-methylbenzamide]: 0.125 µg/mL (≈ 0.318 µM).
On to `CCN(C)/C=N/c1cc(C)c(Cc2nc(C(=O)NC3CCC(F)(F)CC3)cs2)cc1C` [Example 96, N-(4,4-Difluorocyclohexyl)-2-[4-({(E)-[ethyl(methyl)amino]methylidene}amino)-2,5-dimethylbenzyl]-1,3-thiazole-4-carboxamide hydrochloride], for which the MIC under setting [2] amounted to 0.0313 µg/mL.
As for `CCN(C)/C=N/c1cc(C)c(Cc2nc(NC(=O)OC3CCCCC3)cs2)cc1C` [Example 97, Cyclohexyl {2-[4-({(E)-[ethyl(methyl)amino]methylidene}amino)-2,5-dimethylbenzyl]-1,3-thiazol-4-yl}carbamate hydrochloride], under setting [2], the MIC turned out to be 0.0078 µg/mL.
